Results reported in US7250153B2, “Contrast media formulations having improved biological tolerance” (Biophysica Research, Inc., priority 2002, dated 2007).
Several values for one entry are separate records, joined by “and”; a condition that tells them apart may be missing. Equal entries are not always repeated. Where two headings read alike, the source gives them in different places.

What was measured:
rats [1] = details: Control, formulated in TRIS/HCl; intravenous; published (Heglund et al. 1995); cited from earlier work
mice [2] = details: Control, formulated in TRIS/HCl; intravenous; published (Heglund et al. 1995); cited from earlier work
[3] = Separate study: stability of iosimenol after autoclaving in TRIS/HCl and TRIS/citric acid (pH, iodide release); type: physicochemical; details: 121° C. for 20 min; for pH after autoclaving / ΔI−: pre-autoclaving pH 7.00, Ca/Na EDTA 0.1 mg/ml, 340-355 mg I/ml
Experimental: (§1) A 5 micron C18 column 25 cm×4.6 mm ID was eluted with 30% acetonitrile/70% 0.05 M KH2PO4 containing 7 ml/L of 40% tetrabutyl ammonium hydroxide. 20 μl of a 10 μg I^−/ml was the standard. 20 μl of a test sample of iosimenol was injected and UV absorbance measured at 230 nm, 0.2 AU. Under these conditions, the iodide standard eluted after 5.6 minutes and gave an area of “X” counts.
(§2) Iodide was alternately determined by extraction and spectrophotometry according to USP24/NF19, p 911 (1995). In general, the solution containing iodide is oxidized in the presence of acid, with sodium nitrite and then extracted into toluene which is then read at a wavelength of 500 nm. Comparison of standard samples with experimental samples yields the amount of iodide present in the sample.

rats [4] = test: Intravenous LD50 (systemic tolerance) in rats; type: in vivo
Experimental: (§3) To examine the effects of the TRIS/citrate buffer system of this invention on the biological tolerance, using standard methods, we assessed intravenous murine and rat LD50 of iosimenol formulated either in TRIS/HCl or in the novel TRIS/citric acid buffers, and compared the results with those published for the clinically employed nonionic dimer iodixanol (formulated in TRIS/HCl buffer; Heglund IF et al., Acta Radiol. Suppl. 1995:399:69-82). Murine and rat LD50 were obtained by 1 ml/min injection of 340 mg I/ml; data at 7 days and based on the 50% survival of the animals was expressed as g I/kg bw (Table 3).

mice [5] = test: Intravenous LD50 (systemic tolerance) in mice; type: in vivo
Experimental: as §3

[6] = Stability of iosimenol to autoclave sterilization (20 min at 121° C.), free iodide measured; type: physicochemical; details: for I− after / I− before: single samples
Experimental: Samples of Iosimenol were formulated in 20 mM TRIS+5 mM citric acid, TRIS/HCl and 10 mM TRIS+3.3 mM citrate. Samples were then autoclaved for 20 minutes at 121° C. and the amounts of free iodine measured.
as §1, §2

[7] = Buffer 10 mM TRIS + 3 mM citric acid

## CC(=O)N(CC(O)CN(C(C)=O)c1c(I)c(C(=O)NCC(O)CO)c(I)c(C(=O)NCC(O)CO)c1I)c1c(I)c(C(=O)NCC(O)CO)c(I)c(C(=O)NCC(O)CO)c1I (stereo not shown) [Iodixanol]
Rats [1]
  LD50 rats: 21.0 g I/kg bw
Mice [2]
  LD50 mice: 21.0 g I/kg bw

## NC(=O)c1c(I)c(C(=O)NCC(O)CO)c(I)c(N(CC(O)CO)C(=O)CC(=O)N(CC(O)CO)c2c(I)c(C(N)=O)c(I)c(C(=O)NCC(O)CO)c2I)c1I (stereo not shown) [Iosimenol, N,N′-Bis[3-carbamoyl-5-(2,3-dihydroxypropyl-carbamoyl)-2,4,6-triiodophenyl]-N,N′-bis(2,3-dihydroxypropyl)-malonamide]
[3]; [7]
  pH after autoclaving: 6.90
  ΔI−: +24.2 μg/ml
[3]; Buffer 10 mM TRIS/HCl
  pH after autoclaving: 6.49
  ΔI−: +8.7 μg/ml
[3]; Buffer 20 mM TRIS/HCl
  pH after autoclaving: 7.00
  ΔI−: +7 μg/ml
[3]; TRIS/citric acid in a non-equivalent ratio compared with TRIS/HCl buffer
  Stability after autoclaving (in words): lower stability
Rats [4]; 20 mM TRIS + 5 mM citric acid, intravenous, 1 ml/min injection of 340 mg I/ml, data at 7 days
  LD50 rats: 23.5 g I/kg bw
Rats [4]; rat, in vivo, iv
  LD50 rats: 20.0 g I/kg bw
Rats [4]; rat, intravenous
  LD50 in 20 mM TRIS with 5 mM citrate compared with 20 mM TRIS/HCl (in words): statistically significantly higher LD50
Mice [5]; mouse, in vivo, iv
  LD50 mice: 22.0 g I/kg bw
Mice [5]; murine, intravenous
  LD50 in 20 mM TRIS with 5 mM citrate compared with 20 mM TRIS/HCl (in words): statistically significantly higher LD50
[6]; 20 mM TRIS and 5 mM citric acid, pH about 6.5 to 7.5, compared with TRIS/HCl or TRIS/citrate in molar equivalent ratio
  Stability on autoclaving (in words): always somewhat less or equally stable
[6]; Buffer 10 mM TRIS + 3.3 mM citrate, after 20 min at 121° C., average
  I− after, Avg.: 21.84 µg/mL
[6]; Buffer 10 mM TRIS + 3.3 mM citrate, after 20 min at 121° C.
  I− after: 22.34 µg/mL and 21.51 µg/mL and 21.66 µg/mL
[6]; Buffer 10 mM TRIS + 3.3 mM citrate, after minus before 20 min at 121° C.
  ΔI−: +17.84 μg/ml
[6]; Buffer 10 mM TRIS + 3.3 mM citrate, before autoclaving, average
  I− before, Avg.: 4.00 µg/mL
[6]; Buffer 10 mM TRIS + 3.3 mM citrate, before autoclaving
  I− before: 3.99 µg/mL and 4.17 µg/mL and 3.83 µg/mL
[6]; Buffer 20 mM TRIS + 5 mM citric acid, after 20 min at 121° C., average
  I− after, Avg.: 16.90 µg/mL
[6]; Buffer 20 mM TRIS + 5 mM citric acid, after 20 min at 121° C.
  I− after: 15.80 µg/mL and 15.96 µg/mL and 16.11 µg/mL and 16.53 µg/mL and 18.87 µg/mL and 18.13 µg/mL
[6]; Buffer 20 mM TRIS + 5 mM citric acid, after minus before 20 min at 121° C.
  ΔI−: +12.90 μg/ml
[6]; Buffer 20 mM TRIS + 5 mM citric acid, before autoclaving, average
  I− before, Avg.: 4.00 µg/mL
[6]; Buffer 20 mM TRIS + 5 mM citric acid, before autoclaving
  I− before: 4.08 µg/mL and 3.94 µg/mL and 3.42 µg/mL and 3.59 µg/mL and 4.44 µg/mL and 4.52 µg/mL
[6]; Buffer 20 mM TRIS/HCl, after 20 min at 121° C., average
  I− after, average (row not labelled): 14.22 µg/mL
[6]; Buffer 20 mM TRIS/HCl, after 20 min at 121° C.
  I− after: 14.07 µg/mL and 14.19 µg/mL and 14.39 µg/mL
[6]; Buffer 20 mM TRIS/HCl, after minus before 20 min at 121° C.
  ΔI− (row not labelled): +9.89 μg/ml
[6]; Buffer 20 mM TRIS/HCl, before autoclaving, average
  I− before, average (row not labelled): 4.33 µg/mL
[6]; Buffer 20 mM TRIS/HCl, before autoclaving
  I− before: 4.29 µg/mL and 4.44 µg/mL and 4.27 µg/mL
[6]; carboxylic acid neutralized by an amine, compared with TRIS/carboxylic acid where TRIS prevailed or TRIS/HCl
  Stability under autoclaving (in words): less stable
